Entries after “also recorded” stand apart in the source; their conditions may differ.
Tests used:
[1] = Solubility in neutral aqueous solution; assay type: physicochemical; settings: amino group of the handle protonated
Method: When the amino group of the handle was protonated, wrenchnolol (7b) and its aminopropyl version (7a) became soluble up to ˜1 mM in neutral aqueous solution. The high water solubility enabled NMR analysis of these molecules in a buffered aqueous solution, and their proton signals were completely assigned through a combination of NOESY, DQF-COSY, and HOHAHA data sets (Table S1).

[2] = tested on: SK-BR3 breast cancer cells; assay: Cell viability assay (WST-1) in SK-BR3 breast cancer cells; assay type: cell-based, human
Method: SK-BR3 breast cancer cells were plated on 96-well plates at density of 5×10^3 cells/well and maintained for 24 hrs. The cells were then incubated with varied concentrations of each compound for 48 hrs, followed by addition of Premix WST-1 Solution (Takara). Cell viability was estimated by measuring absorbance at 450 nm after 1 hr with a SPECTRAmax microplatereader.

VP16 activation domain = assay: Transcription reporter gene assay (GAL4 fusion, SEAP), VP16 activation domain; assay type: cell-based; settings: HEK293 cells, 20 μM, 10-hr incubation
Method: (§1) Mammalian expression vectors each encoding the activation domain of ESX, VP16, or NFκBp65 fused with the GAL4 DNA-binding domain were used. Each expression construct was co-transfected to HEK293Tag human kidney cells together with a reporter plasmid in which the production of secreted alkaline phosphatase (SEAP) is under control of an IL-2 promoter carrying five GAL4 binding sites. After a 24 hour incubation in the presence or absence of adamanolol, an aliquot of the culture was assayed for SEAP activity. The total amounts of transfected DNA were normalized.
(§2) mammalian expression vectors, each encoding the activation domain of ESX, VP16, or NF-κB p65 fused with the GAL4 DNA-binding domain (amino acids 1-94), were used. Each expression construct was co-transfected to HEK293Tag human kidney cells together with a reporter plasmid in which the production of secreted alkaline phosphatase (SEAP) is under control of an IL2 promoter carrying five GAL4 binding sites. After 10-hr incubation with wrenchnolol (20 μM), an aliquot of the culture was assayed for SEAP activity.

[3] = tested on: NF-κB p65 activation domain; assay: Transcription reporter gene assay (GAL4 fusion, SEAP), NF-κB p65 activation domain; assay type: cell-based, human; settings: HEK293 cells, 20 μM, 10-hr incubation
Method: as §2

Her2 = Her2 protein expression by western blot of cell lysates; assay type: cell-based, human; settings: SK-BR3 cells, 7 μM, 24 hrs; alpha-tubulin not reduced
From the text: Sur-2 is a human homolog of […] elegans Sur-2, a protein of unknown function whose mutations suppress the phenotype of an activated ras mutation (Singh et al., 1995), and it has been linked to the transcription-activating function of the adenovirus E1A protein and the Elk-1 transcription factor. […] To test this, we designed a cell-permeable peptide that binds Sur-2 (referred to as TAT-ESX129-145). The design takes advantage of the binding affinity of ESX129-145 and the cell internalization property of the 11-aa peptide derived from the HIV TAT protein. We first examined whether TAT ESX129-145 reduces endogenous expression of the Her2 gene in three Her2-overexpressing breast cancer cell lines, SK-BR-3, MDA-MB-453, and […] (FIG. 4). Cells were incubated in the presence or absence of TAT-ESX129-145, and the protein levels of Her2 were examined by Western blot analyses of normalized amounts of cell lysates.
Her2-overexpressing SK-BR3 cells were treated by 7.3 μM of adamanolol for 24 hrs, and whole cell lysates were analyzed by western blots. […]
SK-BR3 cells were treated by 7 μM of wrenchnolol for 24 hrs, and whole cell lysates were analyzed by western blots. […]

ESX activation domain = assay: Transcription reporter gene assay (GAL4 fusion, SEAP), ESX activation domain; assay type: cell-based, human; settings: HEK293 cells, 20 μM, 10-hr incubation
Method: as §1, §2

Sur-2 (GST-Sur2352-625) = biological target: T1, Sur-2 (GST-Sur2352-625) (Homo sapiens, UniProt Q9ULK4); assay: Fluorescence perturbation of fluorescein conjugate 9 by GST-Sur2352-625; assay type: binding; settings: measured with fluorescein conjugate 9, emission at 522 nm
T1 construct: made in house
T1 sequence (Q9ULK4 352-625): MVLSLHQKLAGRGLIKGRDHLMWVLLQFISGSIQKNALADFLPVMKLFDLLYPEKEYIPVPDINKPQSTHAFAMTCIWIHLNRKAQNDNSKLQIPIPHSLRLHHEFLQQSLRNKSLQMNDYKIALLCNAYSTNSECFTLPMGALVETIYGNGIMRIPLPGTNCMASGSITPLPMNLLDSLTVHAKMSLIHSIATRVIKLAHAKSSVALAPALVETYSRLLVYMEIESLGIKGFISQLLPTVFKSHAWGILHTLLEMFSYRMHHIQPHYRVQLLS
Method: (§3) HeLa cell nuclear extracts were prepared as described47 and incubated with a biotin conjugate of wrenchnolol (8) (100 μM) at 4° C. for 24 hrs. The samples were incubated with Neutravidin affinity resin (Pierce) at 4° C. for 2 hrs and extensively washed with PBS buffer containing 0.5% Nonidet P-40. The bound proteins were then separated by SDS/PAGE and analyzed by western blots with an antibody against human Sur-2 or by silver-staining. A=Ao+0.5.e([9]o+(([9]o+[P]oKd)2−4[9]o[P]o)0.5)
Where A and Ao are the values of fluorescence intensity of 9 in the presence or absence of GST-Sur2352-625, respectively, and .e is the differential fluorescence intensity of 1 μM of 9 in the presence of an infinite concentration of protein and in its absence. [9]o and [P]o are the total concentrations of 9 and protein added, respectively.
The fluorescein conjugate 9 also enabled evaluation of the Kd value of the interaction between wrenchnolol and Sur-2 in vitro. Shown in FIG. 22C are relative emission intensities of 9 at 522 nm (excitation: 490 nm) in the presence of varied concentrations of GST-Sur2352-625. When a GST fusion of Sur-2 protein (GST-Sur2352-625) was added to a solution of conjugate 9, the fluorescence intensity of 9 at 522 nm was decreased ([…]).

ESX-Sur-2 interaction = biological target: T2, ESX-Sur-2 interaction (Homo sapiens, UniProt Q9ULK4); assay: Inhibition of the ESX-Sur-2 interaction in vitro (fluorescence of FITC-ESX129-145 with GST-Sur2352-625); assay type: binding
T2 construct: made in house
T2 sequence (Q9ULK4 352-625): T1 sequence (Q9ULK4 352-625)
Method: To monitor the ESX-DRIP130 interaction, we labeled ESX129-145 with fluorescein isothiocyanate (FITC; Pierce) at the Lys144 position and measured its fluorescence spectra upon adding the glutatathione-S′-transferase (GST) fusion of DRIP130352-625. ESX129-145 was synthesized by standard Fmoc chemistry (the NH2 terminus was capped by an acetyl group during the synthesis) and purified by HPLC. The peptide was then coupled with FITC at the Lys144 position in a conjugation buffer (100 mM carbonate-bicarbonate buffer, pH 9) in dark and purified by NAP-5 desalting column (Amersham). The labeled peptide was quantified by UV and visible absorbance.
GST-Sur-2352-625 was expressed and purified. Varied concentrations of the fusion protein were added to FITC-ESX129-145 (10 nM) in phosphate buffered saline containing 2% (v/v) ethanol, and the fluorescence spectra of FITC-ESX129-145 were measured by an ABI LS-50B Fluorescence Spectrometer (Ex: 490 nm). The dissociation constant of the interaction was estimated to be 12 μM through the emission perturbation at 522 nm.
To examine the effects of adamanolol on the interaction in vitro, the ethanol component of the binding buffer was replaced with an ethanolic solution of adamanolol. The fractions of FITC-ESX129-145 (10 nM) bound to 50 μM of GST-Sur-2352-625 were estimated by measuring fluorescence emission at 522 nm. ESX129-145 and pindolol were used as positive and negative controls, respectively.
In another series of derivatives (the R3 substituents in Table 1), the adamantane group of adamanolol was substituted (11a-d). […] The binding fractions were calculated on the basis of fluorescence spectra of FITC-ESX129-145 (152 nM) in presence of GST-Sur2352-625 (212 nM) and varied concentrations of each adamanolol derivative.

Sur-2 = biological target: T3, Sur-2 (Homo sapiens, UniProt Q9ULK4); assay: Sur-2 interaction of biotin conjugate in HeLa cell nuclear extracts (Neutravidin affinity, western blot); assay type: binding; settings: 100 μM, 4° C., 24 hrs
T3 construct: HeLa cell nuclear extracts were prepared as described47 and incubated with a biotin conjugate of wrenchnolol (8); endogenous in cells; host or cells: HeLa cell nuclear extracts
T3 sequence (Q9ULK4 1-1368): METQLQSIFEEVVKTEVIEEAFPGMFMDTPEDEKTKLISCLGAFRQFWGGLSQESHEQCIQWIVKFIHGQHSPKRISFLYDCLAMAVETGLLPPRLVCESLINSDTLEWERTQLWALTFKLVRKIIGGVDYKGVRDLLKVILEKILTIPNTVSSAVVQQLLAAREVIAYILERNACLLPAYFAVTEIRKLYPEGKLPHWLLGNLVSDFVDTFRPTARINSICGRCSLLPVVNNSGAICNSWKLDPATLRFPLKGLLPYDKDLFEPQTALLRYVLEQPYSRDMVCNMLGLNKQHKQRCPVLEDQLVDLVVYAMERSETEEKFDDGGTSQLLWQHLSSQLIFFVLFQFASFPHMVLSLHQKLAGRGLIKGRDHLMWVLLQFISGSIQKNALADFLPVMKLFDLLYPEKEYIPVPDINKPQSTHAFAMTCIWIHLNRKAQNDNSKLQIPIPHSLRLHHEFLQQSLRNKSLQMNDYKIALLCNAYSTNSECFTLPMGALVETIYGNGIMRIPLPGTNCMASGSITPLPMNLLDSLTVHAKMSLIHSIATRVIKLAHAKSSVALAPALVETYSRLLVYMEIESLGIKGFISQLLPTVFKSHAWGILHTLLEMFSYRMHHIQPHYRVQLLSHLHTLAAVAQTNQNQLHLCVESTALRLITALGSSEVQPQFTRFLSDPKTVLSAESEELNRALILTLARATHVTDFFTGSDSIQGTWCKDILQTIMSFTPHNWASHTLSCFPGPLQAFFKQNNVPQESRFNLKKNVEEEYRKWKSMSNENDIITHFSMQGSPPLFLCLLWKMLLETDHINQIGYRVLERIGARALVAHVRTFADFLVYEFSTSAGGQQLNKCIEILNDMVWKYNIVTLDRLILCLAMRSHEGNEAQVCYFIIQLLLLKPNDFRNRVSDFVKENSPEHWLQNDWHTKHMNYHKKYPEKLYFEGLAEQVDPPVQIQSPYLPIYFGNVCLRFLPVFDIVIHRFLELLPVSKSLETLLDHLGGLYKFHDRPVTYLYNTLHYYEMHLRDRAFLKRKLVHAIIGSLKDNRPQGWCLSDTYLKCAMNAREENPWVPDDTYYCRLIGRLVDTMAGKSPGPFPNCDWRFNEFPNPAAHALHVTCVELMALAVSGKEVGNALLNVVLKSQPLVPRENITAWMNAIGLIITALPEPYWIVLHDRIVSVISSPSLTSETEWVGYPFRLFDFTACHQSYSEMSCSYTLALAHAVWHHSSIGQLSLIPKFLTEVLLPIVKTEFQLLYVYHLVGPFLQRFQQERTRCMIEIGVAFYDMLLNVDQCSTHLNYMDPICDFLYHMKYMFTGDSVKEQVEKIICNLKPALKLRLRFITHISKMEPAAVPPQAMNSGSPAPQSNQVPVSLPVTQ
Method: as §3
To confirm the interaction of wrenchnolol with Sur-2 in a cellular context, a biotin conjugate of wrenchnolol (8) was synthesized (Scheme 1) and incubated with cell nuclear extracts. The bound proteins were purified through an avidin affinity column, separated on an SDS-PAGE gel, and analyzed by western blots with a Sur-2 antibody. […] One of the silver-stained bands matched the western-blotted band of Sur-2, while the identities of the other bands remained unknown. Sur-2 (also called DRIP130 or CRSP130) is a subunit of the human mediator complexes. The additional bands may include those of the other subunits copurified with Sur-2.

MCF-7 Her18 = assay: Cell death in MCF7 cells stably transfected with the Her2 gene; assay type: cell-based, human; settings: ectopic Her2 on a heterologous promoter
From the text: In contrast to the Her2-overexpressing cells, MDA-MB-468, a breast cancer cell line with no detectable levels of Her2, was resistant to TAT-ESX129-145 (FIGS. 5A and 5B). […] The effects of TAT-ESX129-145 on an MCF7 cell line stably transfected with the Her2 gene were examined.

Cc1ccc(S(=O)(=O)n2ccc3c(OCC(O)CN(CCCCCN)C(=O)N4CCC(C5CCN(C(=O)C67CC8CC(CC(C8)C6)C7)CC5)CC4)cccc32)cc1 (stereo not drawn) [Compound 7b, Wrenchnolol]
solubility in neutral aqueous solution [1]: ~1000 µM
IC50 ([2]; 48 hrs incubation, WST-1): 6.9 µM
ability to kill SK-BR3 cells (biological activity, in words) ([2]; compared with adamanolol): no less active than adamanolol
effect on the VP16 activation domain (VP16 activation domain): much milder effects
effect on the NF-κB p65 activation domain [3]: much milder effects
expression of Her2 protein (Her2): reduces; also recorded: inhibition of Her2 protein expression
ability of the ESX activation domain to activate the reporter gene (ESX activation domain): impaired; also recorded: selectively impairs
Kd of the wrenchnolol-Sur-2 interaction (Sur-2 (GST-Sur2352-625)): low μM range
IC50 (ESX-Sur-2 interaction; FITC-ESX129-145 (152 nM), GST-Sur2352-625 (212 nM)): 10 ± 1.5 µM
inhibition of the ESX-Sur-2 interaction in vitro (in words) (ESX-Sur-2 interaction; in vitro fluorescence assay): more strongly than adamanolol

O=C(O)CCCC[C@@H]1SC[C@@H]2NC(=O)N[C@@H]21 [Compound 13]
retention of Sur-2 protein on the affinity column (Sur-2): no Sur-2 protein was detected

ESX129-145: 17-aa segment of the ESX activation domain (TSSSSDELSWIIELLEK; UniProt P78545 129-145, looked up, fragment)
peptide-mediated cell death in Her2-transfected MCF7 cells (MCF-7 Her18): resistant

— patent publication US7449480B2, “Small molecule inhibitors of HER2 expression” (Baylor College of Medicine, priority 2002, dated 2008)
